Results on one compound are retold here after patent US7129213B2, “Tripeptides and tripeptide derivatives for the treatment of neurodegenerative diseases” (Neurotell AG, priority 2002, dated 2006).

The conditions of data set [1]: PAMPA. On the technique in general: In PAMPA a lipid-coated filter parts donor from acceptor wells.
Excerpt: The Parallel Artificial Membrane Permeation Assay system (PAMPA) is a simple and fast method for the prediction of gastrointestinal drug absorption. Drug permeation of biological cell layers is mainly related to passive diffusion processes. The PAMPA method measures the permeation of potential new drugs across an artificial membrane by passive diffusion and allows a classification into low, medium and high absorbers.
The artificial membrane was built up by pipetting a solution of lecithine in organic solvent on a supporting filter material in 96-well plates. For all test compounds, stock solutions of 5 mM were prepared in ethanol. They were then diluted in Tris-buffer (0.05 M, pH 7,4) to a final concentration of 500 μM. Permeation rates of all test compounds were measured in triplicate or quadruplicate. Diffusion time across the artificial membrane was 16 h. For all compounds reference values without phospholipid layer were individually determined. Concentrations in the acceptor compartments were measured by UV difference spectroscopy using a microtiter plate reader Spectramax Plus^384 from Molecular Devices. For each compound the λmax values were determined in a previous run and measurements were performed at this wavelength. The permeation rates are expressed as flux rates, which are calculated according to the following formula: flux (%)=OD (test well)/OD (control well)×100. […] Lucifer Yellow, a non-permeating dye, has been applied to each well postexperimentally and the concentration of the marker measured in a Wallac Victor^2 1420 Multilabel Counter. Wells, in which the concentration of Lucifer Yellow exceeded 1% of the amount detected in the control wells (without artificial membrane) were discarded.
In data set [2] the test system is rats pretreated with orally administered dexamethasone. Put plainly: Dexamethasone model, sound avoidance conditioning. It is filed as in vivo, rat. As to the method: 20 rats were orally administered 50 mg/kg/day of dexamethasone over a period of 21 days. At Day 19, the animals were chloralized (360 mg/kg), and a catheter was placed into the carotid artery as described above. At Day 21, the animals were randomly divided into two groups: • one group of 10 rats received an intracarotid injection of 1 ml/kg/day of normal saline for a period of 10 days (controls). • one group of 10 rats received 20 mg/kg/day of HCl-Gly-Phe-PrONH2 dissolved in normal saline for a period of 10 days. The injections were given at 9.00 a.m.
(§1) During the last five days of treatment, the rats were placed under the common learning conditions of the three models between 10.00 a.m. and 11.00 a.m. (see below).
(§2) During the last five days of treatment, at 10.00 a.m. (1 hour after the administration of HCl-Gly-Phe-ProNH2), the animals were placed into a learning cage for sound avoidance conditioning (Conditioning avoidance response). The animals learned to climb a pole first to escape from and then to avoid an electric shock. This method was standardized and quantified in our laboratory (see Le Poncin M., Lafitte J. C., Rapin J. R., Sound Avoidance Conditioning and a Mathematical approach to the description of acquisition performance, Math. Biosciences 59 (1982) 242–268).
(§3) For a period of five days, the animals were placed everyday under these learning conditions for a total of ten tests a day. Results are expressed as percentage of adequate responses, and the kinetics of the responses is represented by a multi-exponential maximum curve.
(§4) The curve maximum represents the learning capacities. The slope of the curve evaluates the learning speed. The area under the curve (AUC) represents a good evaluation of all conditioning parameters. The maximum value of the area under the curve is 500, if the animals show 100% adequate responses as early as Day 0. In fact, an average area under the curve is calculated per day, what amounts to a maximum value of 100. In the absolute control animals, this average area under the curve is equal to 40+/−4.

In data set [3] the test system is rats previously treated by vincristine. Put plainly: Vincristine model, sound avoidance conditioning (pole climbing test). It is filed as in vivo, rat. How it is done:
The rats were slightly anesthetized by ether, an incision was made into the skin of the skull, and the skull was pierced by means of a dental burr. A metal needle was stereotaxically directed to the lateral ventricle, and then fixed by means of dental cement. Every day of the experiment, the patency of the needle was controlled.
Three days after introducing the needle (recovery from the postoperative shock) the non-anesthetized animals were injected 5 μl of normal saline with vincristine in a dose of 5 μg/kg/day. […] This administration was repeated every day for a period of five days.
Three days after the last administration of vincristine, the animals were chloralized (360 mg/kg), and, starting at the external carotid artery, a permanent floating catheter was retrogradely introduced into a common carotid artery. This catheter left again on the top of the skull, and was fixed by means of dental cement. After two days the animals had recovered from the postoperative shock. […] The steady state was reached on Day 3 after the last administration, and the model was stable for a period of several months. Once this lapse of time passed, a second type of degeneration was observed that affects the white matter, and was certainly due to apoptosis phenomena).
Five days after the last administration of vincristine, the twenty rats were randomly divided into two groups of 10 animals each: • one group of 10 rats received an intracarotid injection of 1 ml/kg/day of normal saline (controls) for a period of 10 days. • one group of 10 rats received 20 mg/kg/day of HCl-Gly-Phe-ProNH2 dissolved in normal saline for a period of 10 days. The injections were given at 9.00 a.m.
as §1, §2, §3, §4

Data set [4] concerns rat treated by Gp120 as intracerebroventricular injection. The data set is described as follows: Gp120 model, sound avoidance conditioning. The data set is classed as in vivo. Particulars: for AUC (average area under the learning curve per day) / percentage of adequate responses D0 / percentage of adequate responses D3 / percentage of adequate responses D4: Gp120 ICV; for percentage of adequate responses D0: learning day D0; for percentage of adequate responses D3: learning day D3; for percentage of adequate responses D4: learning day D4. As to the method:
Day 0. The animals were slightly anesthetized by ether, an incision was made into the skin of the skull, and the skull was pierced by means of a dental burr. A metal needle was stereotaxically directed to the lateral ventricle, and then fixed by means of dental cement. Every day of the experiment, the patency of the needle was controlled.
Day 3. Three days after introducing the needle (recovery from the postoperative shock) the animals received an intra-ventricular injection of 10 nM/kg/day of Gp120 (dissolved in normal saline) in a volume of 20 μl. This administration was repeated daily for a period of five days.
Day 18. Ten days after the last administration of Gp120, the rats were chloralized (360 mg/kg). A permanent floating catheter was retrogradely introduced into the common carotid artery. This catheter left again on the top of the skull, where it was fixed.
Day 21. Three days later (recovery from the postoperative shock), the 30 rats were randomly divided into three group of 10 animals each: • the first group of 10 rats received an intracarotid injection of 1 ml/kg/day of normal saline for a period of 10 days. • the second group of 10 rats received 10 mg/kg/day of HCl-Gly-Phe-ProNH2 (dissolved in normal saline) for a period of 10 days. • the third group received 20 mg/kg/day of HCl-Gly-Phe-ProNH2 under the same conditions. The injections were given between 9.00 and 9.30 a.m.
Day 26 to 30. The animals of all three groups were placed under the common learning conditions of the entire protocol. The learning sessions took place between 10.00 a.m. and 11.00 a.m.
as §2, §3, §4

Structures can show the parent of a compound that is named as a salt. Where a SMILES comes first, the peptide text is derived from it.

Turning to `NCC(=O)N[C@@H](Cc1ccccc1)C(=O)N1CCC[C@H]1C(N)=O` [HCl-Gly-Phe-ProNH2, glycyl-L-phenylalanyl-L-prolineamide] (H-Gly-Phe-Pro-NH2), the “PAMPA classification, predicted absorption after peroral application” value in data set [1] is “weakly absorbed”. For the same compound, the “percentage of adequate responses D0” value in data set [2] (dexamethasone 50 mg/kg/day oral 21 days, 20 mg/kg/day 10 days, learning day D0) was 0%; in data set [3] (vincristine 5 μg/kg/day ICV 5 days, 20 mg/kg/day intracarotid 10 days, learning day D0), 0%; in data set [4] (10 mg/kg/day 10 days), 0%; in data set [4] (20 mg/kg/day 10 days), 0%. Also, the “effect on learning capacities” value in data set [2] (dexamethasone model) is on record as “partially restores the learning capacities”. Also, the “AUC (average area under the learning curve per day)” value is “**35.0 +/− 3.1” in data set [2] (dexamethasone model, 20 mg/kg/day 10 days); “**24.8 +/− 3.2” in data set [3] (vincristine model, 20 mg/kg/day 10 days); “**23.8 +/− 4.1” in data set [4] (10 mg/kg/day 10 days); “**29.6 +/− 3.0” in data set [4] (20 mg/kg/day 10 days). Further, the “percentage of adequate responses D1” value is listed as 7 +/− 2% in data set [2] (dexamethasone model, 20 mg/kg/day 10 days, learning day D1) and 5 +/− 2% in data set [3] (vincristine model, 20 mg/kg/day 10 days, learning day D1). Also, the “percentage of adequate responses D2” value in data set [2] (dexamethasone model, 20 mg/kg/day 10 days, learning day D2) is given as “**29 +/− 5%”; in data set [3] (vincristine model, 20 mg/kg/day 10 days, learning day D2), “**20 +/− 4%”. Also, the “percentage of adequate responses D3” value in data set [2] (dexamethasone model, 20 mg/kg/day 10 days, learning day D3) is “**57 +/− 4%”; in data set [3] (vincristine model, 20 mg/kg/day 10 days, learning day D3), “**40 +/− 5%”; in data set [4] (10 mg/kg/day 10 days) it was “**35 +/− 4%”; in data set [4] (20 mg/kg/day 10 days), “**48 +/− 5%”. For the same compound, the “percentage of adequate responses D4” value is listed as “**75 +/− 3%” in data set [2] (dexamethasone model, 20 mg/kg/day 10 days, learning day D4); “**59 +/− 6%” in data set [3] (vincristine model, 20 mg/kg/day 10 days, learning day D4); “**55 +/− 7%” in data set [4] (10 mg/kg/day 10 days); “**70 +/− 5%” in data set [4] (20 mg/kg/day 10 days). Moreover, the “effect on learning parameters” value in data set [3] (vincristine model, intracarotid injection treatment) was “partly restores the learning parameters”; in data set [4] (Gp120 model, 10 and 20 mg/kg) it was “restores the capacities of the animal depending on the dose”.
